Experimental data published in ChEMBL document CHEMBL1649305, “Novel protease inhibitors (PIs) containing macrocyclic components and 3(R),3a(S),6a(R)-bis-tetrahydrofuranylurethane that are potent against multi-PI-resistant HIV-1 variants in vitro” (Antimicrob Agents Chemother, 2010).
Active and inactive are the calls of the source. The calls are words filed in the database; no cut-off is given here.

Tests used:
[1] = Cytotoxicity against human MT2 cells after 7 days by MTT assay; format: cell-based
[2] = tested on: Human immunodeficiency virus 1; experiment: Antiviral activity against HIV1 expressing protease L10F/M46I/T91S mutant infected in human MT4 cells selected at 1 uM of GRL-246 by MTT assay; format: functional, organism-based; conditions: Human immunodeficiency virus 1, MT4
[3] = tested on: Human immunodeficiency virus 1; experiment: Antiviral activity against HIV1 expressing protease L10F/M46L/I50V/A71Vmutant infected in human MT4 cells selected at 1 uM of GRL-286 by MTT assay; format: functional, organism-based; conditions: Human immunodeficiency virus 1, MT4
[4] = tested on: Human immunodeficiency virus 1; experiment: Antiviral activity against HIV1 NL4-3 infected in human MT4 cells at 1 uM after 37 passages by MTT assay; format: functional, organism-based
[5] = tested on: Human immunodeficiency virus 1; experiment: Antiviral activity against HIV1 NL4-3 infected in human MT4 cells at 1 uM after 20 passages by MTT assay; format: functional, organism-based
[6] = tested on: Human immunodeficiency virus 1; experiment: Antiviral activity against HIV1 NL4-3 infected in human MT4 cells at 1 uM after 33 passages by MTT assay; format: functional, organism-based
[7] = tested on: Human immunodeficiency virus 1; experiment: Antiviral activity against HIV1 LAI infected in human MT2 cells by MTT assay; format: functional, organism-based; conditions: Human immunodeficiency virus 1, LAI
[8] = tested on: Human immunodeficiency virus 1; experiment: Antiviral activity against HIV1 expressing protease L10F/M46M,I/Q61Q mutant infected in human MT4 cells selected at 1 uM of GRL-396 by MTT assay; format: functional, organism-based; conditions: Human immunodeficiency virus 1, MT4
[9] = tested on: Human immunodeficiency virus 1; experiment: Antiviral activity against HIV1 NL4-3 infected in human MT4 cells after 50 passages by MTT assay; format: functional, organism-based
[10] = tested on: Human immunodeficiency virus 1; experiment: Antiviral activity against HIV1 expressing protease L10I/L24I/M46I/V82I/I84V mutant infected in human MT4 cells selected after 50 passages of GRL-216 by MTT assay; format: functional, organism-based; conditions: Human immunodeficiency virus 1, MT4
[11] = tested on: Human immunodeficiency virus 1; experiment: Antiviral activity against wild type HIV1 ERS104 containing protease L63P mutant infected in human PHA-PBMC cells by p24 Gag protein production inhibition assay; conditions: Human immunodeficiency virus 1, ERS104, PBMC
[12] = tested on: Human immunodeficiency virus 1; experiment: Antiviral activity against HIV1 expressing protease L10F/D30N/K45I/A71V/T74S mutant infected in human MT4 cells selected at 5 uM of nelfinavir by MTT assay; format: functional, organism-based; conditions: Human immunodeficiency virus 1, MT4
[13] = tested on: Human immunodeficiency virus 1; experiment: Antiviral activity against multidrug-resistant HIV1 isolate JSL containing L10I, L24I, I33F, E35D, M36I, N37S, M46L, I54V, R57K, I62V, L63P, A71V, G73S, and V82A mutant infected in human PHA-PBMC cells by p24 Gag protein production inhibition assay; conditions: Human immunodeficiency virus 1, isolate JSL
[14] = tested on: Human immunodeficiency virus 1; experiment: Antiviral activity against HIV1 expressing protease L23I/E34Q/K43I/M46I/I50L/G51A/L63P/A71V/V82A/T91A mutant infected in human MT4 cells selected at 5 uM of atazanavir by p24 Gag protein production inhibition assay; conditions: Human immunodeficiency virus 1, MT4
[15] = tested on: Human immunodeficiency virus 1; experiment: Antiviral activity against multidrug-resistant HIV1 isolate B containing protease L10I, K14R, L33I, M36I,M46I, F53I, K55R, I62V, L63P, A71V, G73S, V82A, L90M, and I93L mutant infected in human PHA-PBMC cells by p24 Gag protein production inhibition assay; conditions: Human immunodeficiency virus 1, isolate B
[16] = tested on: Human immunodeficiency virus 1; experiment: Antiviral activity against multidrug-resistant HIV1 isolate G containing L10I, V11I, T12E, I15V, L19I,R41K, M46L, L63P, A71T, V82A, and L90M mutant infected in human PHA-PBMC cells by p24 Gag protein production inhibition assay; conditions: Human immunodeficiency virus 1, isolate G
[17] = tested on: Human immunodeficiency virus 1; experiment: Antiviral activity against wild type HIV1 NL4-3 infected in human MT4 cells by p24 Gag protein production inhibition assay; conditions: Human immunodeficiency virus 1, NL4-3, MT4
[18] = tested on: Human immunodeficiency virus 1; experiment: Antiviral activity against HIV1 expressing protease L10I/G48V/I54V/A71V/I84V/L90M mutant infected in human MT4 cells selected at 5 uM of saquinavir by p24 Gag protein production inhibition assay; conditions: Human immunodeficiency virus 1, MT4
[19] = tested on: Human immunodeficiency virus 1; experiment: Antiviral activity against multidrug-resistant HIV1 isolate TM containing L10I, K14R, R41K, M46L, I54V, L63P, A71V, V82A, L90M, and I93L mutant infected in human PHA-PBMC cells by p24 Gag protein production inhibition assay; conditions: Human immunodeficiency virus 1, isolate TM
[20] = tested on: Human immunodeficiency virus 1; experiment: Antiviral activity against HIV1 expressing protease L10F/M46I/I50V/A71V/I84V/L90M mutant infected in human MT4 cells selected at 5 uM of amprenavir by p24 Gag protein production inhibition assay; conditions: Human immunodeficiency virus 1, MT4
[21] = tested on: Human immunodeficiency virus 1; experiment: Antiviral activity against multidrug-resistant HIV1 isolate MM containing L10I, K43T, M46L, I54V, L63P, A71V, V82A, L90M, and Q92K mutant infected in human PHA-PBMC cells by p24 Gag protein production inhibition assay; conditions: Human immunodeficiency virus 1, isolate MM
[22] = tested on: Human immunodeficiency virus 1; experiment: Antiviral activity against HIV1 expressing protease L10F/M46I/I54V/V82A mutant infected in human MT4 cells selected at 5 uM of Lopinavir by p24 Gag protein production inhibition assay; conditions: Human immunodeficiency virus 1, MT4
[23] = tested on: Human immunodeficiency virus 1; experiment: Antiviral activity against multidrug-resistant HIV1 isolate C containing protease L10I, I15V, K20R, L24I, M36I, M46L, I54V, I62V, L63P, K70Q, V82A, and L89M mutant infected in human PHA-PBMC cells by p24 Gag protein production inhibition assay; conditions: Human immunodeficiency virus 1, isolate C
[24] = tested on: Human immunodeficiency virus 2; experiment: Antiviral activity against HIV2 ROD infected in human MT2 cells by MTT assay; format: functional, organism-based; conditions: Human immunodeficiency virus 2, ISOLATE ROD
[25] = Selectivity ratio of CC50 for human MT2 cells to EC50 for HIV1 LAI infected human MT2 cells; format: ADME, cell-based; conditions: MT2 cells (CC50) and HIV1 LAI infected MT2 cells (EC50)
[26] = tested on: Human immunodeficiency virus type 1 protease (Human immunodeficiency virus 1), Q72874 [L24I,V82I,I84V]; experiment: Inhibition of protease L24I/V82I/I84V[…] dimerization in HIV1 infected in COS7 cells at 0.1 uM by FRET based assay; format: cell-based; conditions: COS-7
[27] = tested on: Human immunodeficiency virus 2; experiment: Antiviral activity against HIV2 EHO infected in human MT2 cells by MTT assay; format: functional, organism-based; conditions: Human immunodeficiency virus 2, EHO
[28] = tested on: MT2; experiment: Ratio of EC50 for HIV2 EHO to EC50 for HIV1 LAI infected in human MT2 cells; format: functional
[29] = tested on: MT2; experiment: Ratio of EC50 for HIV2 ROD to EC50 for HIV1 LAI infected in human MT2 cells; format: functional

Structure (SMILES)	CC50 at 168 h [1] [nM]	EC50 [2] [nM]	EC50 [3] [nM]	EC50 [7] [nM]	EC50 [8] [nM]	EC50 [10] [nM]	EC50 [11] [nM]	EC50 [12] [nM]	EC50 [13] [nM]	EC50 [14] [nM]	EC50 [15] [nM]	EC50 [16] [nM]	EC50 [17] [nM]	EC50 [18] [nM]	EC50 [19] [nM]	EC50 [20] [nM]	EC50 [21] [nM]	EC50 [22] [nM]	EC50 [23] [nM]	EC50 [24] [nM]	other results
COc1ccc2c(c1)OCCCCCCCCN(C[C@@H](O)[C@H](Cc1ccccc1)NC(=O)O[C@H]1CO[C@H]3OCC[C@H]31)S2(=O)=O	33300	420	> 1000	22	370	260															Activity [4]: inactive; Activity [5]: inactive; Activity [6]: inactive; Activity [9]: inactive
CC(C)(C)NC(=O)[C@@H]1C[C@@H]2CCCC[C@@H]2CN1C[C@@H](O)[C@H](Cc1ccccc1)NC(=O)[C@H](CC(N)=O)NC(=O)c1ccc2ccccc2n1							8	3	300	31	270	30	5	> 1000	260	26	190	28	32		
CC(C)CN(C[C@@H](O)[C@H](Cc1ccccc1)NC(=O)O[C@H]1CO[C@H]2OCC[C@H]21)S(=O)(=O)c1ccc(N)cc1		29			16											290		25		10	
COC(=O)N[C@H](C(=O)N[C@@H](Cc1ccccc1)[C@@H](O)CN(Cc1ccc(-c2ccccn2)cc1)NC(=O)[C@@H](NC(=O)OC)C(C)(C)C)C(C)(C)C [ATAZANAVIR]		32			24	14	2	27	430	> 1000	200	33	4	210	65	6	180	36	65		
COc1ccc2c(c1)OC/C=C/CCCCN(C[C@@H](O)[C@H](Cc1ccccc1)NC(=O)O[C@H]1CO[C@H]3OCC[C@H]31)S2(=O)=O	44900	370	> 1000	14	520	240															Activity [4]: inactive; selectivity ratio [25]: 3200; Activity [5]: inactive; Activity [6]: inactive; inhibition [26]: Active; Activity [9]: inactive
Cc1cccc(C)c1OCC(=O)N[C@@H](Cc1ccccc1)[C@@H](O)C[C@H](Cc1ccccc1)NC(=O)[C@H](C(C)C)N1CCCNC1=O [LOPINAVIR]	> 100000	330	> 1000	39	280	190	34	37	> 1000	> 1000	> 1000		46	120	> 1000	> 1000	> 1000	> 1000	> 1000	28	EC50 [27]: 35 nM
CC(C)CN(C[C@@H](O)[C@H](Cc1ccccc1)NC(=O)O[C@H]1CCOC1)S(=O)(=O)c1ccc(N)cc1	> 100000	340	> 1000	24	350	260	30	28	620	280	> 1000	430	34	180	320	> 1000	210	260	370	420	Activity [4]: inactive; Ratio EC50 [28]: 3.53; Activity [5]: inactive; Activity [6]: inactive; Activity [9]: inactive; Ratio EC50 [29]: 12.3; EC50 [27]: 120 nM
CC(C)(C)NC(=O)[C@@H]1CN(Cc2cccnc2)CCN1C[C@@H](O)C[C@@H](Cc1ccccc1)C(=O)N[C@H]1c2ccccc2C[C@H]1O							43		> 1000		> 1000	340			> 1000		> 1000		> 1000		
CCC[C@@]1(CCc2ccccc2)CC(O)=C([C@H](CC)c2cccc(NS(=O)(=O)c3ccc(C(F)(F)F)cn3)c2)C(=O)O1	54100	95	37	170	42	29	120	39	230	410	180	240	320	22	380	220	350	310	380	330	selectivity ratio [25]: 320; EC50 [27]: 300 nM
Cc1c(O)cccc1C(=O)N[C@@H](CSc1ccccc1)[C@H](O)CN1C[C@H]2CCCC[C@H]2C[C@H]1C(=O)NC(C)(C)C		290			220	130		> 1000		> 1000				510		300		320			
